Molecules are shown by their SMILES.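 1) Cells in 96-well plates. 2) Compound, 48 h, 5 concentrations. 3) Linear interpolation between surrounding doses. 4) Unreached endpoint = highest concentration. The concentration for 50% growth inhibition is given as GI50. TGI is the concentration that stops growth completely.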

Among the test systems are EKVX NSCLC; A549 NSCLC; M14 melanoma; NCI-H460 lung; SW-620 colon; NCI-H23 lung; HS 578T breast; RXF 393 renal; UACC-62 melanoma; NCI-H522 lung.
Experiment in all cases: NCI-60 cell line screen, 48 h

For `N#CSc1cc(-c2nc3ccccc3o2)ccc1N`, the GI50 is 5 µM in the assay with EKVX NSCLC; 2.42 µM in the assay with A549 NSCLC; 26.2 µM in the assay with M14 melanoma; 24 µM in the assay on NCI-H460 lung; 25.7 µM in the assay with SW-620 colon; 19.5 µM in the assay on NCI-H23 lung. In addition, the GI50 with HS 578T breast is 11.3 µM; with RXF 393 renal it was 0.965 µM; with UACC-62 melanoma, 13.6 µM; with NCI-H522 lung, above 40.9 µM. Further, the TGI with EKVX NSCLC is 37.2 µM; in the assay with A549 NSCLC it was above 53 µM; with M14 melanoma, 80.4 µM; in the assay with NCI-H460 lung it was above 100 µM; in the assay with SW-620 colon, above 86.2 µM; in the assay with NCI-H23 lung, above 86.1 µM. For the same molecule, the TGI was 63.6 µM with HS 578T breast, 26.3 µM in the assay on RXF 393 renal, 30.8 µM in the assay with UACC-62 melanoma and above 64.6 µM in the assay on NCI-H522 lung.
Turning to `COc1ccc(OC)c(/C=C/C(=O)c2ccc(SC)cc2)c1`, the GI50 was 16.8 µM with EKVX NSCLC; 28.9 µM in the assay on A549 NSCLC; 12.6 µM in the assay on M14 melanoma; 3.82 µM with NCI-H460 lung; 3.45 µM in the assay with SW-620 colon; 2.77 µM in the assay on NCI-H23 lung. In addition, the GI50 is 3.81 µM in the assay with HS 578T breast, 16.2 µM in the assay on RXF 393 renal, 15 µM in the assay on UACC-62 melanoma and 6.91 µM with NCI-H522 lung. For the same molecule, the TGI in the assay with EKVX NSCLC was 39.4 µM; in the assay with A549 NSCLC, above 100 µM; with M14 melanoma, 27.1 µM; in the assay on NCI-H460 lung, 17.6 µM; with SW-620 colon, above 100 µM; in the assay with NCI-H23 lung, 7.6 µM. For the same molecule, the TGI in the assay on HS 578T breast was above 100 µM; in the assay with RXF 393 renal, 37.3 µM; in the assay with UACC-62 melanoma, 29.1 µM; in the assay on NCI-H522 lung, 23.4 µM.
For `CCN(Cc1cccc(C)c1)c1ccc(CO)c(Cl)c1`, the GI50 was 14.6 µM in the assay on EKVX NSCLC; 4.77 µM in the assay on A549 NSCLC; 14.3 µM in the assay with M14 melanoma; 0.513 µM in the assay on NCI-H460 lung; 2.33 µM in the assay with SW-620 colon; 10.1 µM in the assay with NCI-H23 lung. Also, the GI50 is 15.2 µM in the assay with HS 578T breast, 6.52 µM in the assay with RXF 393 renal, 0.158 µM in the assay on UACC-62 melanoma and 13.2 µM in the assay with NCI-H522 lung. Moreover, the TGI in the assay with EKVX NSCLC was 30 µM; with A549 NSCLC it was 20.7 µM; in the assay with M14 melanoma, 29.8 µM; in the assay on NCI-H460 lung it was 14.5 µM; in the assay with SW-620 colon, 18 µM; in the assay on NCI-H23 lung, 25.5 µM. In addition, the TGI was 37.7 µM in the assay on HS 578T breast, 21.9 µM in the assay with RXF 393 renal, 1.11 µM with UACC-62 melanoma and 27.5 µM in the assay with NCI-H522 lung.
Turning to `S=C1NC2=C(CCOc3c2ccc2ccccc32)C(c2ccc(Cl)cc2)N1` (stereo not given), the GI50 was 20.2 µM in the assay with EKVX NSCLC; 45.1 µM in the assay with A549 NSCLC; 54.3 µM in the assay with M14 melanoma; 30.8 µM in the assay on NCI-H460 lung; 43.7 µM in the assay on SW-620 colon; 18.2 µM in the assay on NCI-H23 lung. Also, the GI50 in the assay on HS 578T breast is 21.5 µM; in the assay with RXF 393 renal it was 39 µM; in the assay with UACC-62 melanoma, 21.7 µM; in the assay on NCI-H522 lung, 25.1 µM. Further, the TGI in the assay on EKVX NSCLC was 86 µM; in the assay with A549 NSCLC, above 100 µM; in the assay with M14 melanoma, above 100 µM; with NCI-H460 lung, above 100 µM; in the assay on SW-620 colon, above 100 µM; in the assay on NCI-H23 lung it was 92 µM. Besides, the TGI in the assay with HS 578T breast is 73.5 µM; in the assay on RXF 393 renal, above 100 µM; in the assay with UACC-62 melanoma, 76.4 µM; in the assay on NCI-H522 lung, above 100 µM.
Consider `c1ccc(-c2nn(-c3ccccc3)[n+](-c3ccccc3-c3ccccc3)n2)cc1`, for which the GI50 in the assay on EKVX NSCLC is 0.687 µM; in the assay with A549 NSCLC, 1.07 µM; in the assay on M14 melanoma, 1.63 µM; with NCI-H460 lung, 1.04 µM; with SW-620 colon, 1.4 µM; in the assay on NCI-H23 lung, 0.683 µM. Further, the GI50 was 1.88 µM with HS 578T breast, 2.02 µM in the assay with RXF 393 renal, 0.74 µM in the assay on UACC-62 melanoma and 0.478 µM in the assay on NCI-H522 lung. Besides, the TGI in the assay on EKVX NSCLC is above 74.6 µM; in the assay with A549 NSCLC, above 100 µM; in the assay on M14 melanoma it was 16.6 µM; in the assay with NCI-H460 lung, 8.6 µM; in the assay with SW-620 colon, above 73.1 µM; in the assay with NCI-H23 lung, 8.63 µM. Moreover, the TGI came to 31.5 µM with HS 578T breast, 16.4 µM in the assay on RXF 393 renal, 14.9 µM with UACC-62 melanoma and 8.18 µM with NCI-H522 lung.
With `CC(=O)O[C@H]1Cc2c([nH]c3ccccc23)[C@@H](c2ccc(Cl)cc2)N1C(=O)CCNC(C)(C)C`, the GI50 is 3.74 µM with EKVX NSCLC; 5.19 µM in the assay with A549 NSCLC; 2.05 µM with M14 melanoma; 4.26 µM with NCI-H460 lung; 4.12 µM in the assay with SW-620 colon; 5.12 µM with NCI-H23 lung. Moreover, the GI50 is 3.76 µM with HS 578T breast, 2.52 µM in the assay with RXF 393 renal, 3.92 µM in the assay on UACC-62 melanoma and 5.82 µM in the assay on NCI-H522 lung. Besides, the TGI in the assay on EKVX NSCLC is 7.9 µM; with A549 NSCLC it was 10.1 µM; in the assay on M14 melanoma, 6.96 µM; in the assay on NCI-H460 lung, 10.4 µM; in the assay with SW-620 colon, 8.8 µM; with NCI-H23 lung, 10.5 µM. Moreover, the TGI in the assay with HS 578T breast came out at 13 µM; in the assay with RXF 393 renal it was 6.83 µM; with UACC-62 melanoma it was 8.28 µM; with NCI-H522 lung, 11 µM.
For `NC(=O)c1ccc(S(=O)(=NS(=O)(=O)c2ccccc2)c2ccc(C(N)=O)cc2)cc1`, the TGI with EKVX NSCLC, in the assay with A549 NSCLC, in the assay on M14 melanoma, in the assay on NCI-H460 lung, with SW-620 colon and in the assay with NCI-H23 lung was above 100 µM in each case. Moreover, the TGI in the assay on HS 578T breast, with RXF 393 renal, in the assay with UACC-62 melanoma and in the assay on NCI-H522 lung was above 100 µM each time.
On to `Clc1cc(-c2csc(Cl)c2)cs1`, for which the TGI in the assay with EKVX NSCLC, in the assay on A549 NSCLC, in the assay on M14 melanoma, in the assay with NCI-H460 lung, in the assay with SW-620 colon and with NCI-H23 lung was above 100 µM each time. Moreover, the TGI in the assay on HS 578T breast, in the assay on RXF 393 renal, in the assay on UACC-62 melanoma and in the assay with NCI-H522 lung was above 100 µM in each case.

The record behind these values is PubChem BioAssay (NCI).
